The data set concerns the target Voltage-gated inwardly rectifying potassium channel KCNH2 (Homo sapiens, UniProt Q12809). In words: Electrophysiological recordings were made from a Chinese Hamster Lung cell line stably expressing the full length hERG channel. Single cell ion currents were measured in the perforated patch clamp configuration (100 ug/mL amphoterocin) at room temperature using an IonWorks Quattro instrument. The internal solution contained 140 mM KCl, 1 mM MgCl2, 1 mM EGTA and 20 mM HEPES and was buffered to pH 7.3. […] This sequence was repeated 5 times at a frequency of 0.25 Hz. […] Compounds were incubated for 6-7 min prior to a second measurement of the hERG signal using an identical pulse train. (hERG is a cardiac potassium channel; its block is linked to QT prolongation.)

Sequence of Voltage-gated inwardly rectifying potassium channel KCNH2 (Q12809 whole entry): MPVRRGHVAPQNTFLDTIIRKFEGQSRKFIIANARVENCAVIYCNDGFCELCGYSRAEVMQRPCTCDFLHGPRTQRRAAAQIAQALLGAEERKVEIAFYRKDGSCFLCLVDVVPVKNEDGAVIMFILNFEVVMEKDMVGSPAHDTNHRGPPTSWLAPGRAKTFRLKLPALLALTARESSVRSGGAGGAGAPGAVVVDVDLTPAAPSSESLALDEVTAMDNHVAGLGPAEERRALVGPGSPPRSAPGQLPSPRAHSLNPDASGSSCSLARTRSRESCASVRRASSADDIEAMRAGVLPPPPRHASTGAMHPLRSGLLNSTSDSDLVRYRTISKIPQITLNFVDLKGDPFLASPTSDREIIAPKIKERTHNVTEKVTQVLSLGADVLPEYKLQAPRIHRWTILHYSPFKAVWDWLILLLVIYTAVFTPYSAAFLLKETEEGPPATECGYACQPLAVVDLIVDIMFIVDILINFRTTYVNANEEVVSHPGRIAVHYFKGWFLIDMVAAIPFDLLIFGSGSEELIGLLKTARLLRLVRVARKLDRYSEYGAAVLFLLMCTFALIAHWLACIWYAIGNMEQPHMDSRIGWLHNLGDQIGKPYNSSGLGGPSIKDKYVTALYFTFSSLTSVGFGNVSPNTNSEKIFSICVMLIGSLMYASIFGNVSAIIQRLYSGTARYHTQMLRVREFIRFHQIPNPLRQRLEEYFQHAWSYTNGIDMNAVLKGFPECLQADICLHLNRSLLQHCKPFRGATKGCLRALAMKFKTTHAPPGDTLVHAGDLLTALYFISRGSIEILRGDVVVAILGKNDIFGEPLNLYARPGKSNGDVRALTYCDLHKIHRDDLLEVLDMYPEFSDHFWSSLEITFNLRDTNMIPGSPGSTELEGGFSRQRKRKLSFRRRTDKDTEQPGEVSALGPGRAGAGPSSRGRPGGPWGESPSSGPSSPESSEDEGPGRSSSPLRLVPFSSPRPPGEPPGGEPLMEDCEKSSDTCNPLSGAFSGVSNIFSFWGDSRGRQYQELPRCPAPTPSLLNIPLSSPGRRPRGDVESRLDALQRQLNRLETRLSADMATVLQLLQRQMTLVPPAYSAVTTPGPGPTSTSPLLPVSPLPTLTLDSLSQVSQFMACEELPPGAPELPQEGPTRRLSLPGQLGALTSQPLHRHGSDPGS

Turning to `Clc1ccc(-n2c(-c3ccncc3)nc3ccncc32)cc1`, the IC50 (commonly the concentration needed to halve the response being measured) was “in the range around 5.5 µM”.

The values are drawn from ChEMBL document CHEMBL5727342, “Imidazo[4,5-C]pyridine and pyrrolo[2,3-C]pyridine derivatives as SSAO inhibitors” (2018).
